Legend:
Assay type in all cases: functional
[1] = tested on: A549; assay: Growth inhibition of human A549 cells after 48 hrs by […] growth inhibition assay; conditions: A549, 48 h
[2] = tested on: SNB-19; assay: Growth inhibition of human SNB19 cells assessed as cell growth at 10 uM after 48 hrs by SRB assay; conditions: SNB-19, 48 h, read-out: Activity
[3] = tested on: Malme-3M; assay: Growth inhibition of human MALME-3M cells assessed as cell growth at 1 uM after 48 hrs by SRB assay; conditions: read-out: Activity
[4] = tested on: IGROV-1; assay: Growth inhibition of human IGROV1 cells assessed as cell growth at 0.1 uM after 48 hrs by SRB assay; conditions: IGROV-1, 48 h, read-out: Activity
[5] = tested on: UO-31; assay: Growth inhibition of human UO31 cells after 48 hrs by […] growth inhibition assay; conditions: UO-31, 48 h
[6] = tested on: SK-MEL-2; assay: Growth inhibition of human SK-MEL-2 cells after 48 hrs by […] growth inhibition assay; conditions: SK-MEL-2, 48 h
[7] = tested on: TK-10; assay: Growth inhibition of human TK10 cells after 48 hrs by […] growth inhibition assay; conditions: TK-10, 48 h
[8] = tested on: CCRF-CEM; assay: Growth inhibition of human CCRF-CEM cells after 48 hrs by […] growth inhibition assay
[9] = tested on: DU-145; assay: Growth inhibition of human DU145 cells assessed as cell growth at 10 uM after 48 hrs by SRB assay; conditions: DU-145, 48 h, read-out: Activity
[10] = tested on: NCI-H23; assay: Growth inhibition of human NCI-H23 cells assessed as cell growth at 0.1 uM after 48 hrs by SRB assay; conditions: NCI-H23, 48 h, read-out: Activity
[11] = tested on: HT-29; assay: Growth inhibition of human HT-29 cells assessed as cell growth at 0.1 uM after 48 hrs by SRB assay; conditions: HT-29, 48 h, read-out: Activity
[12] = tested on: MDA-MB-435; assay: Growth inhibition of human MDA-MB-435 cells assessed as cell growth at 1 uM after 48 hrs by SRB assay; conditions: MDA-MB-435, 48 h, read-out: Activity
[13] = tested on: SN12C; assay: Growth inhibition of human SN12C cells assessed as cell growth at 0.1 uM after 48 hrs by SRB assay; conditions: read-out: Activity
[14] = tested on: KM12; assay: Growth inhibition of human KM12 cells assessed as cell growth at 10 uM after 48 hrs by SRB assay; conditions: KM12, 48 h, read-out: Activity
[15] = tested on: HOP-92; assay: Growth inhibition of human HOP92 cells after 48 hrs by […] growth inhibition assay; conditions: HOP-92, 48 h
[16] = tested on: SF-295; assay: Growth inhibition of human SF295 cells assessed as cell growth at 1 uM after 48 hrs by SRB assay; conditions: SF-295, 48 h, read-out: Activity
[17] = tested on: OVCAR-3; assay: Growth inhibition of human OVCAR3 cells assessed as cell growth at 1 mM after 48 hrs by SRB assay; conditions: OVCAR-3, 48 h, read-out: Activity
[18] = tested on: SK-MEL-5; assay: Growth inhibition of human SK-MEL-5 cells assessed as cell growth at 1 mM after 48 hrs by SRB assay; conditions: SK-MEL-5, 48 h, read-out: Activity
[19] = tested on: T47D; assay: Growth inhibition of human T47D cells assessed as cell growth at 1 mM after 48 hrs by SRB assay; conditions: read-out: Activity
[20] = tested on: RXF 393; assay: Growth inhibition of human RXF393 cells assessed as cell growth at 0.1 uM after 48 hrs by SRB assay; conditions: RXF 393, 48 h, read-out: Activity
[21] = tested on: OVCAR-8; assay: Growth inhibition of human OVCAR8 cells assessed as cell growth at 10 uM after 48 hrs by SRB assay; conditions: OVCAR-8, 48 h, read-out: Activity
[22] = tested on: ACHN; assay: Growth inhibition of human ACHN cells assessed as cell growth at 0.1 uM after 48 hrs by SRB assay; conditions: read-out: Activity
[23] = tested on: OVCAR-4; assay: Growth inhibition of human OVCAR4 cells assessed as cell growth at 1 uM after 48 hrs by SRB assay; conditions: OVCAR-4, 48 h, read-out: Activity
[24] = tested on: SF-295; assay: Growth inhibition of human SF295 cells assessed as cell growth at 1 mM after 48 hrs by SRB assay; conditions: SF-295, 48 h, read-out: Activity
[25] = tested on: OVCAR-3; assay: Growth inhibition of human OVCAR3 cells assessed as cell growth at 1 uM after 48 hrs by SRB assay; conditions: OVCAR-3, 48 h, read-out: Activity
[26] = tested on: SK-MEL-28; assay: Growth inhibition of human SK-MEL-28 cells assessed as cell growth at 10 uM after 48 hrs by SRB assay; conditions: SK-MEL-28, 48 h, read-out: Activity
[27] = tested on: NCI-H226; assay: Growth inhibition of human NCI-H226 cells assessed as cell growth at 1 uM after 48 hrs by SRB assay; conditions: NCI-H226, 48 h, read-out: Activity
[28] = tested on: HCT-15; assay: Growth inhibition of human HCT15 cells assessed as cell growth at 0.1 uM after 48 hrs by SRB assay; conditions: HCT-15, 48 h, read-out: Activity
[29] = tested on: BT-549; assay: Growth inhibition of human BT549 cells assessed as cell growth at 0.1 uM after 48 hrs by SRB assay; conditions: BT-549, 48 h, read-out: Activity
[30] = tested on: DU-145; assay: Growth inhibition of human DU145 cells after 48 hrs by […] growth inhibition assay; conditions: DU-145, 48 h
[31] = tested on: LOX IMVI; assay: Growth inhibition of human LOXIMVI cells assessed as cell growth at 100 uM after 48 hrs by SRB assay; conditions: read-out: Activity
[32] = tested on: NCI-H23; assay: Growth inhibition of human NCI-H23 cells assessed as cell growth at 1 uM after 48 hrs by SRB assay; conditions: NCI-H23, 48 h, read-out: Activity
[33] = read-out: LC50 (the source's name)
[34] = read-out: pLC50 (the source's name) (converted)

## CNC(=O)NC[C@H]1O[C@@H](n2cnc3c(NC(=O)Nc4ccccc4)ncnc32)[C@H](O[Si](C)(C)C(C)(C)C)[C@@H]1CC(=O)N(C)OC
[1]; read-out: GI50
  GI50: 9.35 µM
[1]; [33]
  CC50: > 100 µM
[1]; read-out: TGI
  TGI: > 100 µM
[1]; read-out: pGI50 (converted)
  GI50: 9.33 µM
[1]; [34]
  CC50: > 100 µM
[1]; read-out: pTGI (converted)
  TGI: > 100 µM
[2]
  growth at 10 µM: 83%
[3]
  growth at 1 µM: 88%
[4]
  growth at 0.1 µM: 89%
[5]; read-out: GI50
  GI50: 7.79 µM
[5]; [33]
  CC50: > 100 µM
[5]; read-out: TGI
  TGI: > 100 µM
[5]; read-out: pGI50 (converted)
  GI50: 7.76 µM
[5]; [34]
  CC50: > 100 µM
[5]; read-out: pTGI (converted)
  TGI: > 100 µM
[6]; read-out: GI50
  GI50: 14.9 µM
[6]; [33]
  CC50: > 100 µM
[6]; read-out: TGI
  TGI: 83.1 µM
[6]; read-out: pGI50 (converted)
  GI50: 14.8 µM
[6]; [34]
  CC50: > 100 µM
[6]; read-out: pTGI (converted)
  TGI: 83.2 µM
[7]; read-out: GI50
  GI50: 20.6 µM
[7]; [33]
  CC50: > 100 µM
[7]; read-out: TGI
  TGI: > 100 µM
[7]; read-out: pGI50 (converted)
  GI50: 20.4 µM
[7]; [34]
  CC50: > 100 µM
[7]; read-out: pTGI (converted)
  TGI: > 100 µM
[8]; read-out: GI50
  GI50: 6.37 µM
[8]; read-out: LC50
  LC50 (lethal concentration, 50% net cell kill): > 100 µM
[8]; read-out: TGI
  TGI: > 100 µM
[8]; read-out: pGI50 (converted)
  GI50: 6.31 µM
[8]; read-out: pLC50 (converted)
  LC50 (lethal concentration, 50% net cell kill): > 100 µM
[8]; read-out: pTGI (converted)
  TGI: > 100 µM
[9]
  growth at 10 µM: 104%
[10]
  growth at 0.1 µM: 106%
[11]
  growth at 0.1 µM: 104%
[12]
  growth at 1 µM: 97%
[13]
  growth at 0.1 µM: 106%
[14]
  growth at 10 µM: 106%
[15]; read-out: GI50
  GI50: 2.71 µM
[15]; [33]
  CC50: > 100 µM
[15]; read-out: TGI
  TGI: 24.3 µM
[15]; read-out: pGI50 (converted)
  GI50: 2.69 µM
[15]; [34]
  CC50: > 100 µM
[15]; read-out: pTGI (converted)
  TGI: 24 µM
[16]
  growth at 1 µM: 93%
[17]
  growth at 1000 µM: 6%
[18]
  growth at 1000 µM: 11%
[19]
  growth at 1000 µM: 17%
[20]
  growth at 0.1 µM: 103%
[21]
  growth at 10 µM: 103%
[22]
  growth at 0.1 µM: 107%
[23]
  growth at 1 µM: 100%
[24]
  growth at 1000 µM: 20%
[25]
  growth at 1 µM: 107%
[26]
  growth at 10 µM: 101%
[27]
  growth at 1 µM: 111%
[28]
  growth at 0.1 µM: 96%
[29]
  growth at 0.1 µM: 95%
[30]; read-out: GI50
  GI50: 16.6 µM
[30]; [33]
  CC50: > 100 µM
[30]; read-out: TGI
  TGI: > 100 µM
[30]; read-out: pGI50 (converted)
  GI50: 16.6 µM
[30]; [34]
  CC50: > 100 µM
[30]; read-out: pTGI (converted)
  TGI: > 100 µM
[31]
  growth at 100 µM: 43%
[32]
  growth at 1 µM: 103%
